Square brackets hold non-standard residues; d marks the D form. Ends that are not written are not given here. Peptide text beside a SMILES is read from it.
Key:
[1] = system: pulmonary circulation; conditions: rat, in vivo
Excerpt: (§1) See Vavrek supra for assay methods.
Bradykinin and (NBzlGly^7)-bradykinin were virtually identical with respect to destruction (98-99%) on passage through the pulmonary circulation.

[2] = system: rat uterus; test: Smooth muscle bioassay: rat uterus contraction; assay type: cell-based; conditions: bradykinin = 100%
Excerpt: as §1
Rat Uterus, rat uterus contraction;

[3] = system: guinea pig ileum; test: Smooth muscle bioassay: guinea pig ileum contraction; assay type: cell-based; conditions: bradykinin = 100%
Excerpt: as §1
GP Ileum, guinea pig ileum contraction;

[4] = system: rat blood pressure; test: Rat blood pressure assay; assay type: in vivo; conditions: bradykinin = 100%
Excerpt: | See Vavrek supra for assay methods.

Molecule | Destruction [1] [%] | Smooth Muscle Rat Uterus (rat uterus contraction), potency relative to bradykinin [2] [%] | Smooth Muscle GP Ileum (guinea pig ileum contraction), potency relative to bradykinin [3] [%] | Rat Blood Pressure IA, potency relative to bradykinin ([4]; intraaortic administration) [%] | Rat Blood Pressure IV, potency relative to bradykinin ([4]; intravenous administration) [%]
NC(N)=NCCC[C@H](NC(=O)[C@H](Cc1ccccc1)NC(=O)[C@@H](Cc1ccccc1)NC(=O)[C@H](CO)NC(=O)[C@H](Cc1ccccc1)NC(=O)CNC(=O)[C@@H]1CCCN1C(=O)[C@@H]1CCCN1C(=O)[C@@H](N)CCCN=C(N)N)C(=O)O [[D-Phe^7]-Bradykinin, (D-Phe^7)-bradykinin] (H-RPPGFS[dF]FR-OH) | 36 |  |  |  | 
RPPGFSPFR [Bradykinin] |  | 100 | 100 | 100 | 100
